The results in this text go back to ChEMBL document CHEMBL1141898, “Halogenated and isosteric cytisine derivatives with increased affinity and functional activity at nicotinic acetylcholine receptors” (Bioorg Med Chem Lett, 2005).

Test [1] deals with Neuronal acetylcholine receptor; alpha3/beta4 (Rattus norvegicus, UniProt P04757+P12392). In words: Effective concentration in KXalpha-3-beta-4R2 cells expressing rat nicotinic acetylcholine receptor alpha3-beta4 subunits. Type of test: functional, cell-based.
Neuronal acetylcholine receptor; alpha3/beta4, sequence (P04757 whole entry): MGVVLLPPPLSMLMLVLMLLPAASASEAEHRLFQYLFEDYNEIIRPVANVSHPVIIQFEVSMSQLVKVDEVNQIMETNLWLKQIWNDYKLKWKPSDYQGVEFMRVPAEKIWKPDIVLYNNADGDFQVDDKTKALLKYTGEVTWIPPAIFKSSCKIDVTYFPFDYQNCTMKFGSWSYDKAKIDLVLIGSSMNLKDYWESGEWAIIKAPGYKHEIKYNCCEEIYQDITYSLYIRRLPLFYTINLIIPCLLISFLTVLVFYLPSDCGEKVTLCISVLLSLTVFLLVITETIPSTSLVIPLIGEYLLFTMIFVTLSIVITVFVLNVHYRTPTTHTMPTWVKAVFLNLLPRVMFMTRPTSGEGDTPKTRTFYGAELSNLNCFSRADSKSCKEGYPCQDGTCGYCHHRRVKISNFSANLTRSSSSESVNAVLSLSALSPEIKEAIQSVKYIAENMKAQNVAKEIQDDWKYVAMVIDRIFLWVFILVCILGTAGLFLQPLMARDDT
Neuronal acetylcholine receptor; alpha3/beta4, sequence (P12392 whole entry): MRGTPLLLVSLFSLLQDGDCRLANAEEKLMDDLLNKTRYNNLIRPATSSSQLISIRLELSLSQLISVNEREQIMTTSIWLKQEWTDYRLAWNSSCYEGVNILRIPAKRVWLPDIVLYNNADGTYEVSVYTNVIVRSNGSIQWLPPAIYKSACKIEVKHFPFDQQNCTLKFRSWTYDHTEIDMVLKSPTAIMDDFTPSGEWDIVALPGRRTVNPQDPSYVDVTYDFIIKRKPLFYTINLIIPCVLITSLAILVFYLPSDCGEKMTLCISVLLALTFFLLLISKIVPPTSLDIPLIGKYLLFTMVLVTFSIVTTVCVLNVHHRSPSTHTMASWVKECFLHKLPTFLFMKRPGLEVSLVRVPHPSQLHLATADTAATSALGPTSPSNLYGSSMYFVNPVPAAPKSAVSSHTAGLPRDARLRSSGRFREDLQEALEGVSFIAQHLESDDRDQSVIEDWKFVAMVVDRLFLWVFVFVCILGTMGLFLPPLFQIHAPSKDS
Test [2] deals with T1, Acetylcholine receptor; alpha1/beta1/delta/gamma (Homo sapiens, UniProt P02708+P07510+P11230+Q07001). In words: Percentage efficacy in TE671 cells expressing acetylcholine neuromuscular receptor as change in membrane potential. The format is functional, cell-based. The settings on record: TE-671.
T1 sequence (P02708 whole entry): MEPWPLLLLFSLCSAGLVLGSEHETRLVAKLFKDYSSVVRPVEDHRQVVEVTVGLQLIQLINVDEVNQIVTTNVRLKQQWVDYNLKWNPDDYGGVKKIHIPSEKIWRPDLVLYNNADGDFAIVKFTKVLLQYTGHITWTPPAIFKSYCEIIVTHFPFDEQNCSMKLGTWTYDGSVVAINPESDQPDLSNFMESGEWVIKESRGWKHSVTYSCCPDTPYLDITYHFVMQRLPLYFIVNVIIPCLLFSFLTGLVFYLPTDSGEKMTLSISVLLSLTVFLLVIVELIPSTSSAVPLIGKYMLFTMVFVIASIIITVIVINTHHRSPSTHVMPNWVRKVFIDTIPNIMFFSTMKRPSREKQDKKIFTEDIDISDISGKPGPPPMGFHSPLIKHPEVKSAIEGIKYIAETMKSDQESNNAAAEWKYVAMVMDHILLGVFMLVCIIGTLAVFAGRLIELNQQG
T1 sequence (P07510 whole entry): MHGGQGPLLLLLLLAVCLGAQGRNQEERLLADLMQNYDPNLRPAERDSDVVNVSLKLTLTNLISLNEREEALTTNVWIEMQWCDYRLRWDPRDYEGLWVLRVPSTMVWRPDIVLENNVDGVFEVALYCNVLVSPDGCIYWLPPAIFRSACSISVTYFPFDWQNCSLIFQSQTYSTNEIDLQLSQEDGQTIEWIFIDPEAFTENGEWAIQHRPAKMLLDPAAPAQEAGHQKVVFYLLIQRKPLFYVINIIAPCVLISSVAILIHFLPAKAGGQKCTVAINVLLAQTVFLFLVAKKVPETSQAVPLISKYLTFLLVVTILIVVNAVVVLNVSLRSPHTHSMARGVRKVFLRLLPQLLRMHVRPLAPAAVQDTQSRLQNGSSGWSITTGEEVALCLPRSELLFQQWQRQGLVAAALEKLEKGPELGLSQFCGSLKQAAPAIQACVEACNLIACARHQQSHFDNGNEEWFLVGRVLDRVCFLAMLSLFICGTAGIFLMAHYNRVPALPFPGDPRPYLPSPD
T1 sequence (P11230 whole entry): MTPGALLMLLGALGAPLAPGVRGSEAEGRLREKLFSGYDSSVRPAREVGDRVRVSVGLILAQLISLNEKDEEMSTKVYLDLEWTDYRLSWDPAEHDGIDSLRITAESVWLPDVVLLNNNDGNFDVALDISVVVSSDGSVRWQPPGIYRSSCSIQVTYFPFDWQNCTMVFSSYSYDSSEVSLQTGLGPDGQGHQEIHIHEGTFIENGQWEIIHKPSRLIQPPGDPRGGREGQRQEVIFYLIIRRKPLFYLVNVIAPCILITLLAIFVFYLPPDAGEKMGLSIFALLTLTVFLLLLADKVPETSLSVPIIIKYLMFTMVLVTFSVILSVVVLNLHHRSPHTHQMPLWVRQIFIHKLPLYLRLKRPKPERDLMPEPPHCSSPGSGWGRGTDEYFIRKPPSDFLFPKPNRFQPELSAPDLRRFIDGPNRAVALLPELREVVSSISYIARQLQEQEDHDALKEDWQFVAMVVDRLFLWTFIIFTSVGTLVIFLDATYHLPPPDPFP
T1 sequence (Q07001 whole entry): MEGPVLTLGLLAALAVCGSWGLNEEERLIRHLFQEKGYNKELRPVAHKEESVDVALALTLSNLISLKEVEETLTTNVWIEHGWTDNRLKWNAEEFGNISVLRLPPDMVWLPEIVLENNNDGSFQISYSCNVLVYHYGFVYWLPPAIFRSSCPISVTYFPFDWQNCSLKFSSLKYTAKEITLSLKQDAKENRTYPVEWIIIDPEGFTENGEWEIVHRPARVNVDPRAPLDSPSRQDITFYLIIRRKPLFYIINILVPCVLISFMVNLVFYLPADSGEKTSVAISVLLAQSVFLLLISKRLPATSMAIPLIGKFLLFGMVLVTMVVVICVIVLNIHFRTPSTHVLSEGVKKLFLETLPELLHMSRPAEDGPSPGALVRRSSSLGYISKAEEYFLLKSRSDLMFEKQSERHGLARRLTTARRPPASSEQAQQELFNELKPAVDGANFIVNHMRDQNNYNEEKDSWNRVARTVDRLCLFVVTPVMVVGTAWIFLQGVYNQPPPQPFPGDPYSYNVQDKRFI
Test [3] deals with T2, Neuronal acetylcholine receptor; alpha4/beta2 (Homo sapiens, UniProt P17787+P43681). Put plainly: Percentage efficacy in K-177 cells expressing acetylcholine central neuronal receptor type alpha-4 beta2 subunits as change in membrane potential. Type of test: functional, cell-based.
T2 sequence (P17787 whole entry): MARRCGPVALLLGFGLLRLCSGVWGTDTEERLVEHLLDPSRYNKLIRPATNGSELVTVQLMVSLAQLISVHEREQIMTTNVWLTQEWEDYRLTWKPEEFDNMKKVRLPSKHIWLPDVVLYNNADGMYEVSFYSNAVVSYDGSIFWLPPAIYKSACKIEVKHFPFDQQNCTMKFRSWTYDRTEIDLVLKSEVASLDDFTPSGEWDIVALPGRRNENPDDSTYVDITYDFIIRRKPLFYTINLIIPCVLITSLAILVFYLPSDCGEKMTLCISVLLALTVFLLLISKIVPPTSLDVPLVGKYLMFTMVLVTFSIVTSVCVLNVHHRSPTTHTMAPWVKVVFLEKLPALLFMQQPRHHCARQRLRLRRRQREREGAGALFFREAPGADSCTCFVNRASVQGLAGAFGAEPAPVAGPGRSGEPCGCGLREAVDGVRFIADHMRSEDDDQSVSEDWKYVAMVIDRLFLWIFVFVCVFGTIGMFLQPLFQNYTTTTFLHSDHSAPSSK
T2 sequence (P43681 whole entry): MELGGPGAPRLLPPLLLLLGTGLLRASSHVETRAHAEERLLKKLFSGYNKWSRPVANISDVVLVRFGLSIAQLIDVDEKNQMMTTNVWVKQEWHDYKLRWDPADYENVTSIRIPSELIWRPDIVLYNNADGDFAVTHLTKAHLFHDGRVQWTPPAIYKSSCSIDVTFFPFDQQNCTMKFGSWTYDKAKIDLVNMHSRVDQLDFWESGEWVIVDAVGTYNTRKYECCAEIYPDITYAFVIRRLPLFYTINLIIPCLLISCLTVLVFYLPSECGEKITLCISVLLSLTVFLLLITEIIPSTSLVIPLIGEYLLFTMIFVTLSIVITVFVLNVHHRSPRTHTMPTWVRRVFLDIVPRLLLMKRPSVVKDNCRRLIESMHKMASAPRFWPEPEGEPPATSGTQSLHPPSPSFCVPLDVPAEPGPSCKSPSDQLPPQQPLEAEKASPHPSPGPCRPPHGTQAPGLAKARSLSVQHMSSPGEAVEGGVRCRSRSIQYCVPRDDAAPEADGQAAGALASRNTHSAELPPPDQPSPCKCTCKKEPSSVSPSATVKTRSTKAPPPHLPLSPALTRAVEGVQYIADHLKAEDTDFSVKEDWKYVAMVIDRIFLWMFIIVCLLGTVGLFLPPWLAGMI
Test [4] has as its target T3, Neuronal acetylcholine receptor; alpha3/beta4 (Rattus norvegicus) (UniProt P04757+P12392). Put plainly: Percentage efficacy in KXalpha-3-beta-4R2 cells expressing rat nicotinic acetylcholine receptor alpha-3 beta4 subunits relative to (1)-epibatidine. Type of test: functional, cell-based.
Test [5] has as its target T1, Acetylcholine receptor; alpha1/beta1/delta/gamma. In words: Change in membrane potential in TE-671 cells expressing acetylcholine neuromuscular receptors. Type of test: functional, cell-based.
Test [6] concerns the target Neuronal acetylcholine receptor; alpha4/beta2 (Rattus norvegicus) (UniProt P09483+P12390). In words: Binding affinity (Ki) for rat brain nicotinic receptors […] alpha-4 and beta2 subunits versus 0.5 nM [3H](1)-epibatidine.
For test [7], the target named is T3, Neuronal acetylcholine receptor; alpha3/beta4 (Rattus norvegicus). In words: Binding affinity (Ki) for rat nicotinic acetylcholine receptor alpha3-beta4 subunits versus 0.5 nM [3H](1)-epibatidine. The format is protein-complex assay.
The target of test [8] is T2, Neuronal acetylcholine receptor; alpha4/beta2. In words: Change in membrane potential in K-177 cells expressing acetylcholine central neuronal receptor alpha4-beta2 subunits. The format is functional, cell-based.

Each structure is given as a SMILES string. A value given as a limit tells only on which side of the number the result lay.

As for `O=c1c(I)ccc2n1CC1CNCC2C1` (configuration not stated), the concentration for a half-maximal effect (EC50) in test [1] was 0.55 nM; in test [5], 45 nM; in test [8], 0.036 nM. Moreover, the results for the Efficacy in test [2], in test [3] and in test [4] were 46%, 92% and 78%, respectively. For the same compound, the Affinity in test [6] is 0.017 nM; in test [7] it was 7.4 nM.

With `O=c1c(Br)cc(Br)c2n1CC1CNCC2C1` (configuration not stated), the half-maximal effective concentration (EC50) in test [1], in test [5] and in test [8] was over 100 nM in each case. For the same compound, the Efficacy in test [2] was under 10%; in test [3], 23%; in test [4], under 10%. In addition, the Affinity in test [6] is 10.8 nM; in test [7] it was 45000 nM.

`O=c1ccc(Cl)c2n1CC1CNCC2C1` (configuration not stated): the concentration giving a half-maximal response (EC50) in test [1] is over 100 nM; in test [5], over 100 nM; in test [8] it was 4 nM. Moreover, the Efficacy in test [2] was under 10%; in test [3] it was 58%; in test [4], under 10%. The Affinity in test [6] turned out to be 2.5 nM; in test [7], 3900 nM.

Regarding `S=c1cccc2n1CC1CNCC2C1` (configuration not stated), the EC50 in test [1] was over 100 nM; in test [5] it was over 100 nM; in test [8] it was 2.2 nM. The values for the Efficacy in test [2], in test [3] and in test [4] were under 10%, 28% and 10%, respectively. For the same compound, the results for the Affinity in test [6] and in test [7] were 0.832 nM and 27000 nM, respectively.

`O=c1cccc2n1C[C@@H]1CNC[C@H]2C1` [CYTISINICLINE]: the results for the half-maximal effective concentration (EC50) in test [1], in test [5] and in test [8] were 25 nM, 11 nM and 0.42 nM, respectively. Also, the Efficacy in test [2] came out at 55%; in test [3], 59%; in test [4], 62%. The Affinity worked out at 0.124 nM in test [6] and 220 nM in test [7].

Turning to `Clc1ccc(C2CC3CCC2N3)cn1` (configuration not stated) [EPIBATIDINE], the Efficacy in test [2] and in test [3] was 100% throughout. The same compound had an EC50 in test [5] of 0.053 nM. For the same compound, the Affinity in test [6] stood at 0.0072 nM; in test [7], 0.51 nM.

`O=c1c(I)cc(I)c2n1CC1CNCC2C1` (configuration not stated): the EC50 is over 100000 nM in test [1], over 100 nM in test [5] and 42 nM in test [8]. The Efficacy in test [2] was under 10%; in test [3] it was 42%; in test [4], under 10%. For the same compound, the Affinity in test [6] was 0.52 nM; in test [7], 4200 nM.

Regarding `O=c1c(Cl)cc(Cl)c2n1CC1CNCC2C1` (configuration not stated), the concentration for a half-maximal effect (EC50) in test [1], in test [5] and in test [8] was over 100 nM in each case. In addition, the Efficacy is 23% in test [2], 20% in test [3] and under 10% in test [4]. Moreover, the values for the Affinity in test [6] and in test [7] were 2.5 nM and 39000 nM, respectively.

Consider `O=c1ccc(Br)c2n1CC1CNCC2C1` (configuration not stated), for which the EC50 in test [1] is 39 nM; in test [5], over 100 nM; in test [8], 1.1 nM. Also, the Efficacy in test [2] is under 10%; in test [3] it was 70%. Moreover, the Affinity came out at 0.308 nM in test [6] and 380 nM in test [7].

Consider `O=c1c(Br)ccc2n1CC1CNCC2C1` (configuration not stated), for which the concentration giving a half-maximal response (EC50) in test [1] came out at 0.88 nM; in test [5], 31 nM; in test [8], 0.05 nM. Besides, the Efficacy is 59% in test [2], 85% in test [3] and 74% in test [4]. The Affinity was 0.01 nM in test [6] and 7.5 nM in test [7].

Consider `C[N+]1(C)CC2CC(C1)c1cccc(=O)n1C2` (configuration not stated), for which the EC50 is over 100 nM in test [1], 37 nM in test [5] and 41 nM in test [8]. Besides, the Efficacy in test [2] turned out to be 60%; in test [3], 70%; in test [4], 29%. Moreover, the results for the Affinity in test [6] and in test [7] were 0.238 nM and 1500 nM, respectively.

Regarding `O=c1c(Cl)ccc2n1CC1CNCC2C1` (configuration not stated), the results for the EC50 in test [1], in test [5] and in test [8] were 5.1 nM, 28 nM and 0.11 nM, respectively. Also, the results for the Efficacy in test [2], in test [3] and in test [4] were 53%, 72% and 71%, respectively. Also, the Affinity is 0.022 nM in test [6] and 18 nM in test [7].

The EC50 is the concentration giving half of the maximal effect.
